Data from patent US5654290A, “Polyunsaturated fatty acid based drugs” (Institut National de la Sante et de la Recherche Medicale, priority 1992, dated 1997).

How the values were obtained:
[1] = tested on: platelets; details: cited from earlier work
[2] = tested on: TXA2 /PGH2 receptor; details: cited from earlier work
[3] = tested on: platelets; details: concentrations which do not bring the TXA2/PGH2 receptor into play; cited from earlier work
[4] = tested on: platelets; details: concentrations which do not bring the TXA2/PGH2 receptor into play; cited from earlier work; remark: listed apart in the source
[5] = tested on: alpha2 -adrenergic receptor; details: platelet membranes; cited from earlier work
[6] = tested on: TXA2 /PGH2 receptor; details: whole platelets or solubilized platelet membranes; cited from earlier work
[7] = tested on: brain; assay: Distribution of the radioactivity between the lipid classes of the brain after intravenous injection of lyso-PCDHA or non-esterified DHA; format: in vivo, rat; details: for radioactivity in OTHERS of the brain / radioactivity in AG of the brain / radioactivity in DG of the brain / radioactivity in LN of the brain / radioactivity in Lyso-PC of the brain / radioactivity in MG of the brain / radioactivity in PC of the brain / radioactivity in PE of the brain / radioactivity in PS of the brain / radioactivity in Pi of the brain / radioactivity in TG of the brain: injection of Lyso-PCDHA
From the text: (§1) The animal studied is a 20-day-old rat in which the cerebral lipid metabolism is at its peak.
(§2) The lyso-PC's are labelled on the fatty acid and the choline, attached to albumin and administered intravenously (50). […] It therefore appears that the lyso-PCDHA's attached to albumin constitute a particularly preferred form of supply of DHA to the developing brain.

[8] = tested on: brain; assay: Capture by the brain, in rats, of lyso-PC's; format: in vivo; details: 20-day-old rat, intravenous, attached to albumin; compared with lyso-PC's comprising 18:1, 18:2 and 20:4
From the text: (§3) FIG. 3 represents the variation of the radio-activity recovered in the total lipids: A from the brain, B from the kidney, C from the heart and D from the liver, after injecting tritiated DHA in free form (black circle) or in the form of 2-DHA-1-lyso-PC (black triangle).
as §1, §2

[9] = tested on: kidney; assay: Capture by the kidney, in rats, of lyso-PCDHA and non-esterified DHA; format: in vivo; details: 20-day-old rat, intravenous; lyso-PCDHA vs non-esterified DHA
From the text: as §3, §1, §2

[10] = tested on: liver; assay: Capture by the liver, in rats, of lyso-PCDHA and non-esterified DHA; format: in vivo; details: 20-day-old rat, intravenous; lyso-PCDHA vs non-esterified DHA
From the text: as §3, §1, §2

[11] = tested on: heart; assay: Capture by the heart, in rats, of lyso-PCDHA and non-esterified DHA; format: in vivo; details: 20-day-old rat, intravenous; lyso-PCDHA vs non-esterified DHA
From the text: as §3, §1, §2

[12] = incorporation in vitro into the platelet lipid reserves, by means of albumin

SMILES: CC/C=C\C/C=C\C/C=C\C/C=C\C/C=C\CCCC(=O)O [20:5n-3, eicosapentanoic acid]
- aggregability of the platelets in response to U 46.619 [1, 12]: loss of aggregability of the platelets in response to U 46.619
- inhibition of platelet aggregation induced by U 46.619 ([1]; non-esterified fatty acid): competitively inhibit platelet aggregation induced by U 46.619
- affinity of U 46.619 for its receptor [2, 12]: decrease in the affinity of the agonist for its receptor
- inhibition of specific binding of U 46.619 to washed platelets ([2]; non-esterified fatty acid): competitively inhibit
- effect on platelet aggregation induced by thrombin [3]: none of these fatty acids affects the platelet aggregation
- effect on platelet aggregation induced by ionophore A 23187 [4]: none of these fatty acids affects the platelet aggregation
- effect on binding of yohimbine to alpha2-adrenergic receptor [5]: do not modify binding of yohimbine
- alteration of the TXA2 /PGH2 receptor [6]: specifically alter the TXA2 /PGH2 receptor

SMILES: CC/C=C\C/C=C\C/C=C\C/C=C\C/C=C\C/C=C\CCC(=O)OC(CO)COP(=O)([O-])OCC[N+](C)(C)C (stereo not shown) [lyso-PCDHA, 1-lyso-2-DHA-glycerophosphocholine]
- esterification in the phosphatidylethanolamines ([7]; brain, rat, after injection): very rapidly, a differential esterification is produced in the phosphatidylethanolamines
- reacylation of DHA in the phosphatidylcholines ([7]; brain, rat, first stages after the injection): low and is visible only in the first stages after the injection
- radioactivity in OTHERS of the brain [7]: 3.7 % of the radioactivity of the total lipids
- radioactivity in AG of the brain ([7]; 2.5 min): 15.3 % of the radioactivity of the total lipids
- radioactivity in DG of the brain ([7]; 2.5 min): 10.8 % of the radioactivity of the total lipids
- radioactivity in LN of the brain ([7]; 2.5 min): 29.3 % of the radioactivity of the total lipids
- radioactivity in Lyso-PC of the brain ([7]; 2.5 min): 4.1 % of the radioactivity of the total lipids
- radioactivity in MG of the brain ([7]; 2.5 min): 2.2 % of the radioactivity of the total lipids
- radioactivity in PC of the brain ([7]; 2.5 min): 25.6 % of the radioactivity of the total lipids
- radioactivity in PE of the brain ([7]; 2.5 min): 28.2 % of the radioactivity of the total lipids
- radioactivity in PS of the brain ([7]; 2.5 min): 3.9 % of the radioactivity of the total lipids
- radioactivity in Pi of the brain ([7]; 2.5 min): 8.9 % of the radioactivity of the total lipids
- radioactivity in TG of the brain ([7]; 2.5 min): 1.0 % of the radioactivity of the total lipids
- radioactivity in AG of the brain ([7]; 5 min): 21.2 % of the radioactivity of the total lipids
- radioactivity in DG of the brain ([7]; 5 min): 9.3 % of the radioactivity of the total lipids
- radioactivity in LN of the brain ([7]; 5 min): 35.3 % of the radioactivity of the total lipids
- radioactivity in Lyso-PC of the brain ([7]; 5 min): 0.4 % of the radioactivity of the total lipids
- radioactivity in MG of the brain ([7]; 5 min): 2.3 % of the radioactivity of the total lipids
- radioactivity in OTHERS of the brain ([7]; 5 min): 11.4 % of the radioactivity of the total lipids
- radioactivity in PC of the brain ([7]; 5 min): 17.8 % of the radioactivity of the total lipids
- radioactivity in PE of the brain ([7]; 5 min): 26.3 % of the radioactivity of the total lipids
- radioactivity in PS of the brain ([7]; 5 min): 5.3 % of the radioactivity of the total lipids
- radioactivity in Pi of the brain ([7]; 5 min): 3.4 % of the radioactivity of the total lipids
- radioactivity in TG of the brain ([7]; 5 min): 2.5 % of the radioactivity of the total lipids
- radioactivity in AG of the brain ([7]; 6.5 min): 17.2 % of the radioactivity of the total lipids
- radioactivity in DG of the brain ([7]; 6.5 min): 9.4 % of the radioactivity of the total lipids
- radioactivity in LN of the brain ([7]; 6.5 min): 31.6 % of the radioactivity of the total lipids
- radioactivity in Lyso-PC of the brain ([7]; 6.5 min): 1.2 % of the radioactivity of the total lipids
- radioactivity in MG of the brain ([7]; 6.5 min): 2.7 % of the radioactivity of the total lipids
- radioactivity in PC of the brain ([7]; 6.5 min): 26.2 % of the radioactivity of the total lipids
- radioactivity in PE of the brain ([7]; 6.5 min): 28.1 % of the radioactivity of the total lipids
- radioactivity in PS of the brain ([7]; 6.5 min): 5.3 % of the radioactivity of the total lipids
- radioactivity in Pi of the brain ([7]; 6.5 min): 3.7 % of the radioactivity of the total lipids
- radioactivity in TG of the brain ([7]; 6.5 min): 2.3 % of the radioactivity of the total lipids
- radioactivity in AG of the brain ([7]; 15 min): 13.9 % of the radioactivity of the total lipids
- radioactivity in DG of the brain ([7]; 15 min): 5.8 % of the radioactivity of the total lipids
- radioactivity in LN of the brain ([7]; 15 min): 23.7 % of the radioactivity of the total lipids
- radioactivity in Lyso-PC of the brain ([7]; 15 min): 0.2 % of the radioactivity of the total lipids
- radioactivity in MG of the brain ([7]; 15 min): 1.8 % of the radioactivity of the total lipids
- radioactivity in OTHERS of the brain ([7]; 15 min): 2.6 % of the radioactivity of the total lipids
- radioactivity in PC of the brain ([7]; 15 min): 26.8 % of the radioactivity of the total lipids
- radioactivity in PE of the brain ([7]; 15 min): 38.9 % of the radioactivity of the total lipids
- radioactivity in PS of the brain ([7]; 15 min): 4.6 % of the radioactivity of the total lipids
- radioactivity in Pi of the brain ([7]; 15 min): 3.2 % of the radioactivity of the total lipids
- radioactivity in TG of the brain ([7]; 15 min): 2.3 % of the radioactivity of the total lipids
- radioactivity in AG of the brain ([7]; 30 min): 11 % of the radioactivity of the total lipids
- radioactivity in DG of the brain ([7]; 30 min): 4 % of the radioactivity of the total lipids
- radioactivity in LN of the brain ([7]; 30 min): 17.8 % of the radioactivity of the total lipids
- radioactivity in Lyso-PC of the brain ([7]; 30 min): 0 % of the radioactivity of the total lipids
- radioactivity in MG of the brain ([7]; 30 min): 0.7 % of the radioactivity of the total lipids
- radioactivity in OTHERS of the brain ([7]; 30 min): 3.8 % of the radioactivity of the total lipids
- radioactivity in PC of the brain ([7]; 30 min): 24.1 % of the radioactivity of the total lipids
- radioactivity in PE of the brain ([7]; 30 min): 46.4 % of the radioactivity of the total lipids
- radioactivity in PS of the brain ([7]; 30 min): 5.0 % of the radioactivity of the total lipids
- radioactivity in Pi of the brain ([7]; 30 min): 2.6 % of the radioactivity of the total lipids
- radioactivity in TG of the brain ([7]; 30 min): 2.1 % of the radioactivity of the total lipids
- radioactivity in AG of the brain ([7]; 60 min): 10.0 % of the radioactivity of the total lipids
- radioactivity in DG of the brain ([7]; 60 min): 2.6 % of the radioactivity of the total lipids
- radioactivity in LN of the brain ([7]; 60 min): 16.7 % of the radioactivity of the total lipids
- radioactivity in Lyso-PC of the brain ([7]; 60 min): 0 % of the radioactivity of the total lipids
- radioactivity in MG of the brain ([7]; 60 min): 0.4 % of the radioactivity of the total lipids
- radioactivity in OTHERS of the brain ([7]; 60 min): 5.3 % of the radioactivity of the total lipids
- radioactivity in PC of the brain ([7]; 60 min): 24.9 % of the radioactivity of the total lipids
- radioactivity in PE of the brain ([7]; 60 min): 49.2 % of the radioactivity of the total lipids
- radioactivity in PS of the brain ([7]; 60 min): 3.9 % of the radioactivity of the total lipids
- radioactivity in Pi of the brain ([7]; 60 min): 2.6 % of the radioactivity of the total lipids
- radioactivity in TG of the brain ([7]; 60 min): 1.4 % of the radioactivity of the total lipids
- capture by the brain [8]: particularly well captured by the brain
- capture by the kidney [9]: captures the two forms of supply in essentially the same manner
- capture by the liver [10]: do not capture the lyso-PCDHA's as effectively as the non-esterified DHA
- capture by the heart [11]: do not capture the lyso-PCDHA's as effectively as the non-esterified DHA
